Usually EC50 stands for the midpoint of the concentration-response curve. The term ED50 denotes the midpoint of the dose-response relation.

The target of series [1] is T1, histamine H2 -receptors (Cavia porcellus, UniProt P47747).
T1 construct: isolated guinea pig atria suspended in an organ bath; from tissue; host or cells: isolated guinea pig atria
The experiment in a line: In vitro inhibition of histamine-induced tachycardia (positive chronotropic effect) in isolated guinea pig atria. The note with it: Krebs-Henseleit pH 7.4, 32° C., histamine 10^-6 g/ml, 30 min contact. The protocol: The myocardial preparation, loaded with 1 gm isometric tension, was allowed to stabilize 60 minutes, and myocardial contractions were recorded through an isometric lever connected to a strain-gauge coupler, and the instantaneous rate was monitored with a cardiotachometer and a heat-writing pen recorder. After two control responses to histamine (10^-6 g/ml) the test compound was added to the bath at the desired final concentration and left for 30 minutes before the atria were again challenged with histamine. The chronotropic obtained in the presence of the antagonist was then compared to the control response to histamine, and the percent reduction of the histamine H2 -evoked response was calculated. […] 3, Smooth muscle, Ed. Daniel, E. E. Paton, M., Plenum Press, New York (1975); Ash and Schild, Br. J.Pharmacol. Chemother. 27, 427-439, 1966.

For series [2], the target named is T2, histamine H2 -receptors (Rattus norvegicus, UniProt P25102).
T2 construct: intravenous or intraduodenal administration in stomach-perfused rats; from tissue; host or cells: stomach of the anesthetized living rat (in vivo)
T2 sequence (P25102 whole entry, the tested form may be a part): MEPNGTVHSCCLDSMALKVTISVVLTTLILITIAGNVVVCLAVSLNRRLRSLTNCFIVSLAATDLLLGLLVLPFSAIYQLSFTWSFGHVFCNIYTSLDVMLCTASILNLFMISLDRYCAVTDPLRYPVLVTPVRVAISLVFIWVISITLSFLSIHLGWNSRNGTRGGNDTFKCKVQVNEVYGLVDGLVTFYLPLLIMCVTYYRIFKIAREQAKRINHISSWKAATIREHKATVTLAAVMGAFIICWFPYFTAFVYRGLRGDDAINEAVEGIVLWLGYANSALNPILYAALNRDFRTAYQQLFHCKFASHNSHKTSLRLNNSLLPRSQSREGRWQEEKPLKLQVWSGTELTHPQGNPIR
The experiment in a line: In vivo antisecretory activity on histamine-induced gastric secretion of acid (stomach-perfused rat). The note with it: iv, histamine 1 mg/kg/hr, values expressed as base, read-out: ED50, inhibition of histamine-induced gastric secretion. The text has this:
The ability of the test compounds to inhibit histamine-induced gastric secretion of acid was investigated after intravenous or intraduodenal administration in stomach-perfused rats, according to Gosh and Schild, Br. J. Pharmacol. Chemother. 13, 54, (1958).
The preparation of the animals under general anesthesia (urethane, 1 g/kg i.p.) and constant temperature, was achieved by inserting and tying in place polyethyl tubes (PE 50) in the esophagus and in the pyloricantral region. After the stomach was washed to remove residual of foods, continuous perfusion of the stomach was started with saline, 0.5 ml/min. (37° C.), primed by a Jobling peristaltic pump. After 30 minutes of perfusion adaptation, the stomach perfusate was collected in 30 min. samples, and titrated for acid content, expressed as μEq of NaOH 1N. As control acid output became constant, intravenous perfusion of histamine (1 mg/kg/hr) was started and maintained throughout the experimental period. After the acid secretion had reached the steadily higher level, increasing doses of the test compounds were injected intravenously in order to obtain dose-response functions. The ED50 was then calculated by standard procedure.

A further series concerns Swiss mice. The experiment in a line: Acute toxicity, single oral dose in Swiss mice. The class given is in vivo. The note with it: 500 mg/kg, fasted 18 hours, mortality at 14 days, values expressed as base. Here is the method: The acute toxicity of the particularly preferred compounds of the formula I was approximately determined by oral administration of a single dose to groups of 5 Swiss mice, fasted for 18 hours before the test. The evaluation of the incidence of mortality was considered 14 days after the administration. The results are shown in the following table, in which the values are expressed taking the compound as a base.

A further series deals with H2 -receptor. The note with it: in vitro, literature; cited from earlier work.
A further series deals with gastric acid secretion. The note with it: cited from earlier work; for inhibition of gastric acid secretion relative to cimetidine: in vivo, literature.

T1 sequence (P47747 whole entry): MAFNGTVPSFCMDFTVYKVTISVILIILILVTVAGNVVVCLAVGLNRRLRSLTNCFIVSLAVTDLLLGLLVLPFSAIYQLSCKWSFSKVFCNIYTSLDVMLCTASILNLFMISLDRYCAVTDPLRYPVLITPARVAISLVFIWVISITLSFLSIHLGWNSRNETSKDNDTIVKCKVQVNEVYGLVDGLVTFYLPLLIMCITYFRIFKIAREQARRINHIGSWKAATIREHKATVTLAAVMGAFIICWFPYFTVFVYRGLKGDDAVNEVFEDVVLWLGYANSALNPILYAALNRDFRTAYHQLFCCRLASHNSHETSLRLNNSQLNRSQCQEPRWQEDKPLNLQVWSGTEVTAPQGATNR

In turn, `C=CCNC=Nc1cccc(-c2csc(NC(=N)N)n2)c1` [14(j), N-Allyl-N'-[3-(2-guanidino-4-thiazolyl)-phenyl]-formamidine] came in with an EC50 on histamine H2 -receptors [1] of 330 nM. Further, the ED50 on histamine H2 -receptors [2] was found to be 0.02 mg/kg. The “No. Dead/No. Treated Mice” value with Swiss mice is 0/5.
The compound `CCNC=Nc1cccc(-c2nsc(NC(=N)N)n2)c1` [14(ap), N-Ethyl-N'-[3-(5-guanidino-1,2,4-thiadiazol-3-yl)-phenyl]-formamidine] came in with an EC50 at histamine H2 -receptors [1] of 450 nM. Also, the ED50 at histamine H2 -receptors [2] stood at 0.051 mg/kg. Also, in the series with Swiss mice, the “No. Dead/No. Treated Mice” value is 0/5.
For the compound `CNC(=C[N+](=O)[O-])NCCSCc1ccc(CN(C)C)o1` [ranitidine], the “H2 -receptor antagonist potency relative to cimetidine” value in the series on H2 -receptor is listed as “more potent than cimetidine”. In the series with gastric acid secretion, the “inhibition of gastric acid secretion relative to cimetidine” value is listed as “more potent than cimetidine”.
On histamine H2 -receptors [1], `CCCCNC=Nc1cccc(-c2csc(N=C(N)N)n2)c1` [14(d), N-Butyl-N'-[3-(2-quanidino-4-thiazolyl)-phenyl]-formamidine] came in with an EC50 of 550 nM. Further, the ED50 on histamine H2 -receptors [2] worked out at 0.073 mg/kg. The “No. Dead/No. Treated Mice” value in the series with Swiss mice is 4/5.
For `N=C(N)Nc1nc(-c2cccc(N=CNCCCO)c2)cs1` [14(s), N-(3-Hydroxy-propyl)-N'-[3-(2-guanidino-4-thiazolyl)-phenyl]-formamidine] the same measures were 270 nM, 0.028 mg/kg and 0/5.
Compound `CC(C)NC=Nc1cccc(-c2csc(NC(=N)N)n2)c1` [14(c), N-Isopropyl-N'-[3-(2-guanidino-4-thiazolyl)-phenyl]-formamidine] registered a 50% effective concentration (EC50) at histamine H2 -receptors [1] of 200 nM. Further, the ED50 on histamine H2 -receptors [2] is 0.035 mg/kg. Besides, the “No. Dead/No. Treated Mice” value with Swiss mice is on record as 1/5.
In the case of `COc1ccc(CN(CCN(C)C)c2ccccn2)cc1` [mepyramine], in the series with gastric acid secretion (literature (Black et al.)), the “effect on gastric acid secretion” value is recorded as “no effect on gastric acid secretion”.
`CCC(C)NC=Nc1cccc(-c2csc(NC(=N)N)n2)c1` (centres unmarked) [14(e), N-sec.Butyl-N'-[3-(2-guanidino-4-thiazolyl)-phenyl]-formamidine] gave an EC50 on histamine H2 -receptors [1] of 300 nM. Besides, the ED50 at histamine H2 -receptors [2] was found to be 0.041 mg/kg. Besides, the “No. Dead/No. Treated Mice” value in the series on Swiss mice is recorded as 0/5.
`CN/C=N/c1cccc(-c2csc(N=C(N)N)n2)c1` [Example 14, N-Methyl-N'-[3-(2-guanidino-4-thiazolyl)-phenyl]-formamidine] registered an EC50 at histamine H2 -receptors [1] of 330 nM. Moreover, on histamine H2 -receptors [2], the 50% effective dose (ED50) stood at 0.02 mg/kg. In addition, the “No. Dead/No. Treated Mice” value in the series on Swiss mice is on record as 0/5.
`COCCNC=Nc1cccc(-c2csc(NC(=N)N)n2)c1` [14(p), N-(2-Methoxy-ethyl)-N'-[3-(2-guanidino-4-thiazolyl)-phenyl]-formamidine] returned an EC50 on histamine H2 -receptors [1] of 480 nM. Further, at histamine H2 -receptors [2], the ED50 was found to be 0.05 mg/kg. Also, the “No. Dead/No. Treated Mice” value in the series on Swiss mice is 0/5.
For `CCNC=Nc1cccc(-c2csc(NC(=N)N)n2)c1` [14(a), N-Ethyl-N'-[3-(2-guanidino-4-thiazolyl)phenyl]-formamidine] the same measures were 530 nM, 0.013 mg/kg and 0/5.
Take `CC(C)CNC=Nc1cccc(-c2csc(NC(=N)N)n2)c1` [14(f), N-Isobutyl-N'-[3-(2-guanidino-4-thiazolyl)-phenyl]-formamidine]: the 50% effective concentration (EC50) on histamine H2 -receptors [1] was determined as 1200 nM. For the same compound, the median effective dose (ED50) on histamine H2 -receptors [2] is 0.082 mg/kg. Besides, the “No. Dead/No. Treated Mice” value in the series with Swiss mice is 0/5.
Take `CNC(=NCCSCc1csc(N=C(N)N)n1)NC#N` [tiotidine]: the “H2 -receptor antagonist potency relative to cimetidine” value in the series on H2 -receptor is reported as “more potent than cimetidine”. Moreover, the “inhibition of gastric acid secretion relative to cimetidine” value with gastric acid secretion is given as “more potent than cimetidine”.
The compound `CCCNC=Nc1cccc(-c2csc(NC(=N)N)n2)c1` [14(b), N-Propyl-N'-[3-(2-guanidino-4-thiazolyl)-phenyl]-formamidine] came in with an EC50 at histamine H2 -receptors [1] of 280 nM. At histamine H2 -receptors [2], the ED50 worked out at 0.019 mg/kg. Also, in the series with Swiss mice, the “No. Dead/No. Treated Mice” value was 0/5.
For `C#CCNC=Nc1cccc(-c2csc(NC(=N)N)n2)c1` [14(l), N-Propargyl-N'-[3-(2-guanidino-4-thiazolyl)-phenyl]-formamidine] the same measures were 3100 nM, 0.074 mg/kg and 0/5.
